“And” between values parts separate entries of the source, which are not always exact repeats. Equal values may be shown once.
How the values were obtained:
Type in all cases: in vivo
[1] = tested on: summer wheat (TRZAS; cv. Triso); experiment: Absolute action: reduction of damage by mesosulfuron-methyl on summer wheat, greenhouse post-emergence; set-up: key to Absolute reduction in damage (difference): percentage points of visual damage (0-100% scale vs untreated)
Description: (§1) 2.1 Absolute Action of Selected Compounds of the Invention Using the Example of Reduction of Damage by Mesosulfuron-Methyl on Summer Wheat (TRZAS) The seeds of the crop plants to be treated are laid out in sandy loam in wood fiber or plastic pots (diameter ˜4 cm), covered with soil and grown in a greenhouse under good conditions for germination and growth. The trial plants were treated at the early leaf stage (BBCH10-BBCH12). In the course of this, the inventive compounds of the general formula (D formulated in the form of wettable powders (WP) were sprayed onto the above-ground parts of the plants as an aqueous suspension with a water application rate corresponding to 800 l/ha with addition of wetting agent (e.g. 0.2% agrotin) in the specified dose. This was followed by the application of the herbicide. For this purpose, mesosulfuron-methyl, formulated in the form of water-dispersible granules (WG), was sprayed onto the above-ground parts of the plants in the form of an aqueous dispersion with a water application rate corresponding to 800 l/ha with addition of wetting agent (e.g. 0.2% agrotin) in a dose of 20 g/ha. The dose of the herbicide was chosen here such that it causes visually apparent damage (min. 30%, max. 75%) compared to untreated crop plants at the evaluation time on a control group of crop plants without safener treatment that were included in the same trial. After application, the plants were cultivated under good growth conditions in a greenhouse. The damage was visually assessed 14-21 days after application. The damage effect was assessed visually on a scale of 0-100% by comparison with untreated control plants, and averaged over 2-3 repeats per treatment. Examples: • 0%=no noticeable effect compared to the untreated plant • 20%=the treated plant population has 20% damage compared to the untreated control population (e.g. growth height, leaf damage, etc.) • 100%=treated plants completely damaged/killed.

[2] = tested on: summer barley (HORVS; cv. Montoya); experiment: Absolute action: reduction of damage by mesosulfuron-methyl on summer barley, greenhouse post-emergence; set-up: key to Absolute reduction in damage (difference): difference in % damage (0-100% visual scale vs untreated control)
Description: as §1, with “2.2” for “2.1”, “Barley (HORVS)” for “Wheat (TRZAS)”, “(I)” for “(D”

[3] = tested on: summer wheat (TRZAS; cv. Triso); experiment: Relative action (efficacy code): reduction of damage by mesosulfuron-methyl on summer wheat; set-up: key: 0: no reduction in damage (appearance corresponding to the herbicide control); 1: slight reduction in damage; 2: distinct reduction in damage; 3: significant reduction in damage; 4: complete reduction in damage (appearance corresponding to the untreated control); conditions: visual, 9-13 days after application
Description: 2.3 Relative Action of Selected Compounds of the Invention Using the Example of Reduction of Damage by Mesosulfuron-Methyl on Summer Wheat (TRZAS) The seeds of the crop plants to be treated are laid out in sandy loam in plastic pots (diameter μ4 cm), covered with soil and grown in a greenhouse under good conditions for germination and growth. The trial plants were treated at the early leaf stage (BBCH10-BBCH12). In the course of this, the inventive compounds of the general formula (I) formulated in the form of wettable powders (WP) were sprayed onto the above-ground parts of the plants as an aqueous suspension with a water application rate corresponding to 800 l/ha with addition of wetting agent (e.g. 0.2% Genapol-LRO or 0.2% Mero) in the specified dose. This was followed by the application of the herbicide. For this purpose, mesosulfuron-methyl, formulated in the form of water-dispersible granules (WG), was sprayed onto the above-ground parts of the plants in the form of an aqueous dispersion with a water application rate corresponding to 800 l/ha with addition of wetting agent (e.g. 0.2% Genapol-LRO or 1 l/ha Biopower) in a dose of 40-60 g/ha. The dose of the herbicide was chosen here such that it causes visually apparent damage (min. 30%, max. 75%) compared to untreated crop plants at the evaluation time on a control group of crop plants without safener treatment that were included in the same trial. After application, the plants were cultivated under good growth conditions in a greenhouse. 9-13 days after application, the efficacy of the test compounds was assessed visually. For this purpose, the appearance of the plants treated with the test compound and herbicide was compared to the corresponding herbicide controls (without safener; with clearly visible damage) and the untreated controls (without damage). The damage-reducing effect of the test compounds was expressed here in graded efficacy codes according to the following scheme: • 0: no reduction in damage (appearance corresponding to the herbicide control) • 1: slight reduction in damage • 2: distinct reduction in damage • 3: significant reduction in damage • 4: complete reduction in damage (appearance corresponding to the untreated control) The trials show clear efficacy of the inventive compounds selected by way of example with regard to the reduction in damage to the summer wheat crop plant (TRZAS; cv. Triso) caused by the herbicide mesosulfuron-methyl: […]

[4] = safener 125 g/ha + mesosulfuron-methyl 20 g/ha
[5] = safener 125 g/ha + mesosulfuron-methyl 20 g/ha, visual, 14-21 days after application
[6] = safener 500 g/ha + mesosulfuron-methyl 20 g/ha
[7] = safener 500 g/ha + mesosulfuron-methyl 20 g/ha, visual, 14-21 days after application
[8] = mesosulfuron-methyl 20 g/ha alone (no safener), visual, 14-21 days after application, scale 0-100%
[9] = safener 100 g/ha + mesosulfuron-methyl 40-60 g/ha
[10] = safener 500 g/ha + mesosulfuron-methyl 40-60 g/ha

| Structure (SMILES) | Absolute reduction in damage (difference) [1, 4] | Herbicide damage with compound of the formula (I) [1, 5] [%] | Absolute reduction in damage (difference) [1, 6] | Herbicide damage with compound of the formula (I) [1, 7] [%] | further results |
| --- | --- | --- | --- | --- | --- |
| COc1ccccc1-n1nc(OCC(=O)O)cc1-c1ccc(F)cc1F [I.42-20] | 40 | 13 | – | – | – |
| CCOC(=O)COc1cc(-c2ccc(F)cc2)n(-c2ccccc2OC)n1 [I.11-20] | 46 | 7 | 46 | 7 | – |
| O=C(O)COc1cc(-c2ccccc2)n(-c2ccc(Cl)cc2)n1 [I.3-7] | 26 | 37 | – | – | – |
| O=C(O)COc1cc(-c2ccc(F)cc2)n(-c2ccc(F)cc2)n1 [I.12-4] | – | – | 46 | 7 | Absolute reduction in damage (difference) [2, 6]: 27; Herbicide damage with compound of the formula (I) [2, 7]: 33% |
| COC(=O)c1ccc(CNS(C)(=O)=O)cc1S(=O)(=O)NC(=O)Nc1nc(OC)cc(OC)n1 [mesosulfuron-methyl, reference compound] | – | – | – | – | Herbicide damage without compound of the formula (I) [1, 8]: 53% and 63%; Herbicide damage without compound of the formula (I) [2, 8]: 60% |
| CCOC(=O)COc1cc(-c2ccc(F)cc2F)n(-c2ccccc2)n1 [I.41-1] | 53 | 0 | – | – | – |
| CCOC(=O)COc1cc(-c2ccc(F)cc2F)n(-c2ccc(F)cc2F)n1 [I.41-38] | – | – | 40 | 13 | Absolute reduction in damage (difference) [2, 6]: 33; Herbicide damage with compound of the formula (I) [2, 7]: 27% |
| O=C(O)COc1cc(-c2ccc(Cl)cc2)n(-c2ccc(F)cc2F)n1 [I.21-38] | 46 | 7 | 50 | 3 | Absolute reduction in damage (difference) [2, 4]: 33; Herbicide damage with compound of the formula (I) [2, 5]: 27%; Absolute reduction in damage (difference) [2, 6]: 33; Herbicide damage with compound of the formula (I) [2, 7]: 27% |
| CCOC(=O)COc1cc(-c2ccc(F)cc2F)n(-c2ccccc2OC)n1 [I.41-20] | 36 | 17 | 43 | 10 | – |
| CCOC(=O)COc1cc(-c2ccc(F)cc2)n(-c2ccc(F)cc2F)n1 [I.11-38] | 43 | 10 | 43 | 10 | Absolute reduction in damage (difference) [2, 4]: 23; Herbicide damage with compound of the formula (I) [2, 5]: 37%; Absolute reduction in damage (difference) [2, 6]: 33; Herbicide damage with compound of the formula (I) [2, 7]: 27% |
| CCOC(=O)COc1cc(-c2ccc(F)cc2F)n(-c2ccc(F)cc2)n1 [I.41-4] | 40 | 13 | – | – | Absolute reduction in damage (difference) [2, 4]: 23; Herbicide damage with compound of the formula (I) [2, 5]: 37% |
| O=C(O)COc1cc(-c2ccc(Cl)cc2F)n(-c2ccc(F)cc2F)n1 [I.48-38] | – | – | – | – | Efficacy of the safener (efficacy code) [3, 9]: 2; Efficacy of the safener (efficacy code) [3, 10]: 2 |
| COc1ccccc1-n1nc(OCC(=O)O)cc1-c1ccccc1 [I.3-20] | – | – | 36 | 17 | – |
| O=C(O)COc1cc(-c2ccc(F)cc2F)n(-c2ccc(F)cc2F)n1 [I.42-38] | 33 | 20 | – | – | Absolute reduction in damage (difference) [2, 4]: 23; Herbicide damage with compound of the formula (I) [2, 5]: 37% |
| CCOC(=O)COc1cc(-c2ccc(Cl)cc2F)n(-c2ccc(Cl)cc2)n1 [I.47-7] | – | – | – | – | Efficacy of the safener (efficacy code) [3, 9]: 2; Efficacy of the safener (efficacy code) [3, 10]: 2 |
| CCOC(=O)COc1cc(-c2ccc(Cl)cc2)n(-c2ccc(Cl)cc2F)n1 [I.20-49] | – | – | – | – | Efficacy of the safener (efficacy code) [3, 9]: 3; Efficacy of the safener (efficacy code) [3, 10]: 3 |
| COc1ccccc1-n1nc(OCC(=O)O)cc1-c1ccc(Cl)cc1 [I.21-20] | 30 | 23 | 36 | 17 | – |
